Entries after “also recorded” stand apart in the source; their conditions may differ. Where a name gives a salt, the structure may show the parent alone. Read-outs that look alike come from different tables or passages of the source.
Tests used:
[1] = molecular target: T1, F1F0 ATP hydrolase (Bos taurus, UniProt P00829+P19483); conditions: cited from earlier work
T1 construct: from tissue; host or cells: sub-mitochondrial particles (SMPs)

[2] = cited from earlier work
[3] = cited from earlier work; remark: listed apart in the source
[4] = tested on: 59 cancer cell lines (NCI-60); assay: NCI-60 one-dose in vitro assay; assay type: cell-based, human
Text: FIGS. 1, 2, 3, 4, 5, 6, 7, 8 show results from the NCI-60 one-dose in vitro assay at the Developmental Therapeutics Program (DTP), at the National Cancer Institute (NCI, Bethesda, MD, USA). Its protocol is well known to those of the art, and it tests the effect, if any, of a test compound on the growth/survivability of a cancer cell line as compared to the no compound control. […] However, a constant is that there is always representative cell lines from leukemia, melanoma and cancers of the lung, colon, brain, ovary, breast, prostate and kidney. In a one-dose NCI compound test report, NCI report a number for each cell line, which they call “Growth Percent”, which is its growth relative to the no-compound control, and relative to the time zero number of cells. This reported parameter allows detection of both growth inhibition (values between 0 and 100) and lethality (values less than 0). For example, an NCI “Growth Percent” value of 100 means no growth inhibition. Value of 40 means 60% growth inhibition. Value of 0 means no net growth over the course of the experiment. Value of −40 means 60% lethality. Value of −100 means all cells are dead. I don't present NCI one-dose data in this original format. Instead, if the NCI “Growth Percent” value for a cell is positive, it is manipulated: [100 minus this original NCI-60 “Growth Percent” data point], to yield the percentage “Growth Inhibition”. If the original NCI “Growth Percent” value for a cell is negative, it is made positive to be the percentage of original cancer cells (at time zero) killed: “Percentage Killed” {and in these cases, of course, all growth has been inhibited, so percentage “Growth Inhibition” is then specified to be 100% for this cancer cell line}. In my one-dose figures, “Growth Inhibition” (0-100%) is presented on the x-axis and, if applicable, “Percentage Killed” (0-100%) further along on the x-axis. The latter is applicable when there is not just cancer growth inhibition but a reduction in the number of cancer cells from the start time i.e. when the compound is not merely slowing cancer growth, but is actively reducing the number of cancer cells from the starting number. In cases where there is only growth inhibition, only “Growth inhibition” is presented on the x-axis.
NCI-60 tests are performed at a controlled temperature of 37° C..
To perform the anti-cancer testing reported: BMS-199264 hydrochloride was purchased from Sigma-Aldrich. BTB06584 was purchased from AdooQ Bioscience, Irvine, CA, USA. Compounds 19a (separated into 6a and 6b stereoisomers) and 31 were synthesized by reaction schemes disclosed herein. Almitrine dimesylate was purchased from Ak Scientific, Palo Alto, CA, USA.

[5] = molecular target: T2, F1F0-ATP hydrolysis (Homo sapiens, UniProt P06576+P25705); conditions: cited from earlier work
T2 construct: BTB06584 potency information (is not an EC50) is from a whole cell study [13]; endogenous in cells

[6] = from [8], Formula (II), read-out: EC50 F1F0 ATP hydrolase

CC(C)(C)c1ccc(CN2Cc3ccccc3N(Cc3cnc[nH]3)C(CCc3ccccc3)C2)cc1 (centres unmarked) [4-t-Bu—Ph, CH2,5-yl]
EC50 [1, 6]: 2140 nM

Cc1nc[nH]c1CN1c2ccccc2CN(S(=O)(=O)c2ccc(F)cc2)CC1CCc1ccccc1 (centres unmarked) [4-F—Ph, SO2,4-Me-5-yl]
EC50 [1, 6]: 151 nM

CC(C)(C)c1ccc(S(=O)(=O)N2Cc3ccccc3N(Cc3ncc[nH]3)C(CCc3ccccc3)C2)cc1 (centres unmarked) [4-t-Bu—Ph, SO2,2-yl]
EC50 [1, 6]: > 10000 nM

COc1ccc(S(=O)(=O)N2Cc3ccccc3N(Cc3c[nH]cn3)C(CCc3ccccc3)C2)cc1 (centres unmarked) [4-OMe—Ph, SO2,5-yl]
EC50 [1, 6]: 77 nM

N#Cc1ccc(S(=O)(=O)N2Cc3ccccc3N(Cc3c[nH]cn3)C(CCc3ccccc3)C2)c(Cl)c1 (centres unmarked) [2-Cl-4-CN—Ph, SO2,5-yl]
EC50 [1, 6]: 939 nM

N.N.O=C([O-])C1(C(=O)[O-])CCC1.[Pt+2] [carboplatin]
LD50 ([2]; mice, intraperitoneal injection (IP)): 118 mg/kg

CN(C)CCCN1c2ccccc2CCc2ccc(Cl)cc21 [clomipramine HCl]
LD50 {mouse, IV} ([2]; mouse, in vivo, iv): 22 mg/kg

CC[C@H]1/C=C/C=C/C[C@@H](C)[C@H](O)[C@@](C)(O)C(=O)[C@@H](C)[C@H](O)[C@@H](C)C(=O)[C@@H](C)[C@H](O)[C@@H](C)/C=C/C(=O)O[C@@H]2[C@H](C)[C@H](CC1)O[C@]1(CC[C@H](C)[C@H](C[C@@H](C)O)O1)[C@H]2C [oligomycin]
time within which healthy rats are killed ([3]; 1 mg/kg intraperitoneal, n=10 [15]): ≤ 48 h | LD33 ([3]; healthy rats, intraperitoneal injection [15]): 0.5 mg/kg

O=[N+]([O-])c1cccc(S(=O)(=O)N2Cc3ccccc3N(Cc3cnc[nH]3)C(CCc3ccccc3)C2)c1 (centres unmarked) [3-NO2—Ph, SO2,5-yl]
EC50 [1, 6]: 423 nM

O=S(=O)(c1cccs1)N1Cc2ccccc2N(Cc2cnc[nH]2)C(CCc2ccccc2)C1 (centres unmarked) [Thiophen-2-yl, SO2,5-yl]
EC50 [1, 6]: 636 nM

N#Cc1cccc(C(=O)/N=C(\Nc2ccc(Cl)cc2)NC(Cn2ccnc2)c2ccc(Cl)cc2Cl)c1 (centres unmarked) [Compound 19a]
EC50 ([1]; SMP studies in [5-8], read-out: EC50 F1F0 ATP hydrolysis / hydrolase): 33 nM

O=S(=O)(c1cccc2nonc12)N1Cc2ccccc2N(Cc2cnc[nH]2)C(CCc2ccccc2)C1 (centres unmarked) [Benzofurazan-7-yl, SO2,5-yl]
EC50 [1, 6]: 1780 nM

CC(C)(C)c1ccc(S(=O)(=O)N2Cc3ccccc3N(Cc3c[nH]cn3)C(CCc3ccccc3)C2)cc1 (centres unmarked) [4-t-Bu—Ph, SO2,5-yl]
EC50 [1, 6]: 8 nM

O=S(=O)(Cc1ccccc1)N1Cc2ccccc2N(Cc2c[nH]cn2)C(CCc2ccccc2)C1 (centres unmarked) [Bn, SO2,5-yl]
EC50 [1, 6]: 2410 nM

CC1(C)Oc2ccc(S(=O)(=O)N3CCCCC3)cc2[C@@H](N(Cc2ncc[nH]2)c2ccc(Cl)cc2)[C@@H]1O.Cl [BMS-199264 hydrochloride]
anti-cancer activity (in words) ([4]; 10 μM): Anti-cancer activity | anti-cancer activity (in words) ([4]; 100 μM): Anti-cancer activity

O=S(=O)(c1ccc(O)cc1)N1Cc2ccccc2N(Cc2cnc[nH]2)C(CCc2ccccc2)C1 (centres unmarked) [4-OH—Ph, SO2,5-yl]
EC50 [1, 6]: 667 nM

O=S(=O)(c1ccccc1)N1Cc2ccccc2N(Cc2cnc[nH]2)C(CCc2ccccc2)C1 (centres unmarked) [Ph, SO2,5-yl]
EC50 [1, 6]: 282 nM

O=C(Oc1cc(S(=O)(=O)c2ccccc2)ccc1[N+](=O)O)c1ccc(Cl)cc1 [BTB06584]
inhibitory potency for F1F0-ATP hydrolysis (in words) ([5]; 10 μM [13]): none | concentration required to inhibit F1F0-ATP hydrolysis ([5]; whole cell study [13], not an EC50): > 100 µM | anti-cancer activity (in words) ([4]; 10 μM): none and No anti-cancer activity | anti-cancer activity (in words) ([4]; 100 μM): observed; also recorded: Anti-cancer activity

O=S(=O)(c1ccc(F)cc1)N1Cc2ccccc2N(Cc2c[nH]cn2)C(CCc2ccccc2)C1 (centres unmarked) [4-F—Ph, SO2,5-yl]
EC50 [1, 6]: 221 nM

O=S(=O)(N1Cc2ccccc2N(Cc2c[nH]cn2)C(CCc2ccccc2)C1)C(F)(F)F (centres unmarked) [CF3, SO2,5-yl]
EC50 [1, 6]: 77 nM

Cc1nc[nH]c1CN1c2ccccc2CN(Cc2ccc(C(C)(C)C)cc2)CC1CCc1ccccc1 (centres unmarked) [4-t-Bu—Ph, CH2,4-Me-5-yl]
EC50 [1, 6]: 2350 nM

O=S(=O)(c1cccc2ccccc12)N1Cc2ccccc2N(Cc2cnc[nH]2)C(CCc2ccccc2)C1 (centres unmarked) [Naphth-1-y1, SO2,5-yl]
EC50 [1, 6]: 338 nM

Cc1nc(CN2c3ccccc3CN(S(=O)(=O)c3ccc(F)cc3)CC2CCc2ccccc2)c[nH]1 (centres unmarked) [4-F—Ph, SO2,2-Me-5-yl]
EC50 [1, 6]: 9620 nM

O=S(=O)(c1cccc2cccnc12)N1Cc2ccccc2N(Cc2c[nH]cn2)C(CCc2ccccc2)C1 (centres unmarked) [Quinolin-8-yl, SO2,5-yl]
EC50 [1, 6]: 2930 nM

N#CN=C(Nc1ccccc1Cl)NC(Cn1ccnc1)c1ccc(Cl)cc1Cl (centres unmarked) [2-Cl, CN]
EC50 ([1]; Further Examples [5], Formula (I), read-out: EC50 F1F0 ATP hydrolase): 2230 nM

O=S(=O)(c1cc(Cl)ccc1Cl)N1Cc2ccccc2N(Cc2cnc[nH]2)C(CCc2ccccc2)C1 (centres unmarked) [2,5-di-Cl—Ph, SO2,5-yl]
EC50 [1, 6]: 158 nM

N#Cc1ccc(S(=O)(=O)N2Cc3ccccc3N(Cc3cnc[nH]3)C(CCc3ccccc3)C2)cc1 (centres unmarked) [4-CN—Ph, SO2,5-yl]
EC50 [1, 6]: 255 nM
